Reference: patent US20190030009A1, “COMPOUNDS AND COMPOSITIONS FOR THE TREATMENT OF CRYPTOSPORIDIOSIS” (Novartis AG, priority 2016, published 2019)

Tests used:
[1] = Cytotoxicity against HepG2; format: cell-based; details: human, HepG2 cells (ATCC HB-8065), 5 days exposure
In short: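 Cells seeded at 10^5 per well, held 24 h at 37 °C, then exposed to two-fold serial dilutions of compound for 5 days. Viability read with Cell Proliferation Kit II (XTT); values reported as CC50.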

[2] = system: Cryptosporidium parvum; test: Cytopathic effect (CPE) based assay, C. parvum infected HCT-8 cells; details: HCT-8 host cell viability (CellTiter-Glo), 48 hours treatment, read-out: Cp CPE EC50
In short: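 HCT-8 cells were batch-infected with excysted C. parvum (Iowa isolate) oocysts at MOI 1:2 (host:parasite) for 3 h at 37 °C, then seeded and incubated 24 h before compound addition. Compounds were given as 3-fold dilution series (final DMSO <0.5%). Host-cell loss (cytopathic effect) was read as viability with CellTiter-Glo.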

[3] = target: C. parvum PI(4)K (Cryptosporidium parvum, UniProt Q5CVD3); test: CpPI(4)K enzymatic assay (Transcreener ADP2 FP); format: biochemical
Description: The full-length coding sequence of C. parvum PI(4)K (cgd8_4500, 1114 amino acids) was codon-optimized for baculovirus expression, synthesized and cloned into pFastBac-HTb (Invitrogen 10584-027) in frame with the amino-terminal polyhistidine tag using the BamHI and Hindlll restriction sites. Recombinant pFastBacHTb-CpPI(4)K bacmid clones were generated by site-specific transposition in E. coli DH10Bac (Invitrogen 10361-012). The bacmid sequence was confirmed by direct DNA sequencing to confirm a lack of mutations across the whole gene. The subsequent steps for bacmid isolation, transfection and selection of the recombinant viruses were performed according to the manufacturer's protocol (Bac-to-Bac system #10359, Invitrogen).
SF9 cells, cultured in SF-900 III serum-free medium, were transfected with recombinant baculovirus at 1/200 (v/v) and incubated at 27° C. for 72 h. The pellets were collected after centrifugation and re-suspended in cell lysis buffer (20 mM Tris-HCl, pH 7.5, 300 mM NaCl, 1 mM DTT, 20 mM imidazole, 0.01% Triton X-100 and 1× complete protease inhibitor cocktail without EDTA (Roche Diagnostics 04693116001)). The cell suspension was lysed by sonication and the clarified supernatant was loaded onto a 1 ml HisTrap affinity column (GE Healthcare) pre-equilibrated with buffer A (20 mM Tris-HCl, pH 7.5, 300 mM NaCl, 1 mM DTT, 20 mM Imidazole, and 1× complete protease inhibitor cocktail without EDTA). The column was washed with buffer B (buffer A containing 45 mM imidazole) and the bound protein of interest was eluted with buffer C (buffer A with 90 mM imidazole). The fractions containing CpPI(4)K were pooled, concentrated using Amicon Ultra-15 and purified by a gel-filtration column (Hi-Load 26/60 Superdex 200, GE Healthcare) equilibrated with 20 mM Tris, pH 7.5, 300 mM NaCl, 1 mM DTT and 1× protease inhibitor cocktail without EDTA. The concentrations of the purified protein (Mw 132.39 kda) was determined by using the protein molar extinction coefficient (ε280 nm=133,810 M^−1 cm^−1). Aliquots were flash frozen in liquid nitrogen and immediately stored at −80° C.
The CpPI(4)K enzymatic assay was performed as described earlier with a some modifications (McNamara et al., 2013). Briefly, L-α-phosphatidylinositol (Avanti Polar Lipid 840046), dissolved in 3% n-octylglucoside (Roche Diagnostics 10634425001), was used as the lipid substrate for the PI(4)K activity assay. CpPI(4)K was assayed using Transcreener ADP2 FP detection kit (BellBrook 3010) in a black, solid 384-well plate (Corning 3575). The final assay volume was 10 μl and contained 3 nM of the respective CpPI(4)K construct in 10 mM Tris, pH 7.5, 1 mM DTT, 3 μM ATP, 5 mM Mn2+, 0.05% Triton X-100 and 10 μM phosphatidylinositol/octylglucoside. The enzyme reaction was performed for 50 minutes at room temperature and was stopped by adding 10 μl of detection mix containing 1× stop buffer (50 mM HEPES, pH7.5, 400 mM NaCl, 20 mM EDTA, and 0.02% Brij-35), 2 nM AMP Alexa Fluor 633 tracer, and 20 μg ml^−1 ADP antibody. Fluorescence polarization measurements were performed on the Infinite M1000 plate reader (Tecan) with λex=635 nm and λem=680 nm (20-nm bandwidth). IC50 values were calculated using Graphpad Prism software.
The inhibitory concentration (IC50) of selected compounds on the C. parvPI(4)K activity is provided in the third column [Cp_PI4K_enz IC50 (μM)] of Table II.

[4] = system: C. parvum; test: High content imaging assay, C. parvum infected HCT-8 cells; format: cell-based; details: Cryptosporidium parvum, percentage of infected HCT-8 cells, 48 hours treatment, read-out: Cp HCl IC50
Protocol: (§1) Human ileocecal colorectal adenocarcinoma cells (HCT-8 [HRT-18] ATCC, CCL-34) were maintained in T-175 flasks (Corning, 431080) in complete growth medium (RPMI-1640 medium (Gibco, 11875) supplemented with 10% heat-inactivated horse serum (Gibco, 26050), 1×MEM non-essential amino acids (Gibco, 11140), 10 mM HEPES (Gibco, 15630), 100 units/mL penicillin, and 100 units/mL streptomycin) at 37° C. and 5% CO2 in a humidified incubator. Cultures were passaged twice weekly using 10 mL of 1×Phosphate-Buffered Saline (PBS) without Ca^2+ and Mg^2+ (Gibco, 20012) for washing and 3-5 mL per T-175 flask of TrypLE Express Enzyme (Gibco, 12604) for dissociation of adherent cells.
Cryptosporidium parvum oocysts purchased from the Sterling Laboratory, University of Arizona (Iowa isolate) were purified from infected calf feces using discontinuous sucrose and cesium chloride centrifugation gradients and stored in PBS solution containing 0.01% Tween 20, 100 units/mL penicillin and 100 units/mL gentamicin.
(§2) Excystation and infection protocols were developed following established methods with some modifications (Gut & Nelson, 1999, Upton et aL, 1995, Bessoff et aL, 2013). Briefly, oocysts were primed in 1 mL of 10 mM hydrochloric acid in 1× Hank's Balanced Salt Solution (HBSS) (Gibco, 14025) for 10 minutes with agitation at 1000 rpm, 37° C. on an Eppendorf thermomixer, then washed twice with 1 mL of room temperature non-acidic 1× HBSS by centrifugation at 13,000 rpm for 3 minutes at 25° C. Primed oocysts were further excysted at a concentration of 1×10^6 oocysts/μL in parasite infection medium consisting of a pre-warmed and pre-gassed 1:1 formulation of Leibovitz's L-15 medium (Gibco, 11415) and UltraCULTURE medium (Lonza, 12-725F) supplemented with 2 mM sodium taurocholate (Sigma, 86339-1), 10% heat-inactivated horse serum, and 200 μM L-ascorbic acid (Sigma, 95210) at 25° C. for 10 minutes. HCT-8 monolayer cells were infected with excysted cryptosporidium at a specified multiplicity of infection (MOI). All dilutions for subsequent assays were performed in parasite infection medium without sodium taurocholate. Pre-excysted oocysts were enumerated microscopically using a C-Chip disposable hemocytometer (NanoEnTek, DHC-N01).
(§3) Compound powders were dissolved in neat DMSO (Fisher, D4121) to 10 mM and stored at 4° C. prior to dilution into source plates. Dilutions were carried out using a Microlab STAR liquid handler (Hamilton) to obtain compound source plates containing the ten-point or eight-point three fold dilutions starting from 10 mM in duplicates. Source plates were stored at 4° C. prior to spotting into assay plates. Before administration, all compound source plates were equilibrated to room temperature. A specified volume of compounds from source plate were spotted to assay plate using an Echo Acoustic liquid handler (LABCYTE, 550) so that the final DMSO concentration was less than 0.5%. Each assay plate a specified number of DMSO-treated negative control wells and a well-studied potent active compound at 100 nM as positive control. As a quality control, all positive and negative-control wells were used to calculate a Z′-value and signal to noise ratio (S:N) for each plate.
Imaging assays were developed following established Cryptosporidium spp labeling and in vitro infection models with some modifications (Bessoff et aL, 2013, Gut & Nelson, 1999). Briefly, 2×10^4 HCT-8 cells per well were seeded into 384-well, flat black clear-bottom OPERA assay plates (Greiner, 789071-G) at 20 μL per well in complete growth medium using a Multidrop Combi liquid handler (ThermoScientific, 5840300) and standard tube dispensing cassette (ThermoScientific, 24072670) and incubated for 24 hours at 37° C. The HCT-8 cells were infected with 10 μL per well of 1×10^4 excysted C. parvum oocysts (host to parasite MOI of 1:0.5) or 10 μL per well of 4×10^4 excysted C. hominis oocysts (MOI 1:2) in parasite infection medium using the Multidrop and incubated at 37° C. […]

[5] = system: Cryptosporidium hominis; test: Cytopathic effect (CPE) based assay, C. hominis infected HCT-8 cells; details: HCT-8 host cell viability (CellTiter-Glo), 48 hours treatment, read-out: Ch CPE EC50
Protocol: as §1
Cryptosporidium hominis oocysts were purchased from the Tufts University Cummings School of Veterinary Medicine (courtesy of Dr. Saul Tzipori). C. hominis oocysts were purified from infected gnotobiotic piglet feces and stored in PBS solution containing 0.01% Tween-20, 100 units/mL penicillin and 100 units/mL gentamicin. C. parvum and C. hominis oocysts less than three months old from the date of shedding were used in infection experiments.
as §2, §3
Cryptosporidium spp are obligate-intracellular parasites that infect intestinal epithelial cells and the host cell is killed upon parasite egress. […] The loss of epithelial cells is due to both rapid parasite invasion/multiplication/egress and also pro-inflammatory immune response (Adams et al., 1994, Griffiths et al., 1994). We have observed a consistent cytopathic effect (CPE) in HCT-8 cells with C. spp infection the loss of viability of the host cells using CellTiter-Glo reagent.
Confluent HCT-8 cells in T-175 flasks were directly infected with excysted oocysts at an MOI (host to parasite) of 1:2 for C. parvum and 1:4 for C. hominis. […]

Sequence of C. parvum PI(4)K (Q5CVD3 entry or part of it): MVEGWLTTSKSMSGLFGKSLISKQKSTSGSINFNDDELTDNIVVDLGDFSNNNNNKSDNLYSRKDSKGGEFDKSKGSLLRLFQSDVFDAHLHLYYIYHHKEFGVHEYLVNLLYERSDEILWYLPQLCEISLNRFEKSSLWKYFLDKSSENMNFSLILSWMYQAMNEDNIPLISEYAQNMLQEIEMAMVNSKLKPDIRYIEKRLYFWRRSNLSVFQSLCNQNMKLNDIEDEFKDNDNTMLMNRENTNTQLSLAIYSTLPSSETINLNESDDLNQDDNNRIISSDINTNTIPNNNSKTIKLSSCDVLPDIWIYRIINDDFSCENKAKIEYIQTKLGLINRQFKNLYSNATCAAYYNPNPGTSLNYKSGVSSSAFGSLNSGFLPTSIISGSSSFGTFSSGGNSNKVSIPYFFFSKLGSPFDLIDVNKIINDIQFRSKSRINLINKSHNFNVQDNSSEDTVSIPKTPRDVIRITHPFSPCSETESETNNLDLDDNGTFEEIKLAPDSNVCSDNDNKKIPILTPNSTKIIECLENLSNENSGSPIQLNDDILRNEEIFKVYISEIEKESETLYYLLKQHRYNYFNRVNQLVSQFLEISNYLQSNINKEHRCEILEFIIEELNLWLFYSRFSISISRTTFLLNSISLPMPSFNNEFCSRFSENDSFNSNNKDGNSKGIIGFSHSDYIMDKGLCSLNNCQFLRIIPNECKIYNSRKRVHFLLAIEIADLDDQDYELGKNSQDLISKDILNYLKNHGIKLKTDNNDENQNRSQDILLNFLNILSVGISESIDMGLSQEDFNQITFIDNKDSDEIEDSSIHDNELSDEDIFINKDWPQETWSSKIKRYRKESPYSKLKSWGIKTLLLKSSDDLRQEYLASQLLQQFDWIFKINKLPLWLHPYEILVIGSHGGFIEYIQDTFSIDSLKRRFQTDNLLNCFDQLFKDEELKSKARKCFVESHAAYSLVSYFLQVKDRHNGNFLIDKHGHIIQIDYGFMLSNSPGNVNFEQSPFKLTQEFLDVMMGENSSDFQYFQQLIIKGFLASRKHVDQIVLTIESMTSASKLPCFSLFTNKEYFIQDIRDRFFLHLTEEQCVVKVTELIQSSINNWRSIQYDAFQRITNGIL

Structure (SMILES): CC(Cn1cccn1)N(C(=O)c1ccn2ncc(-c3ccc(C(N)=O)cc3)c2c1)c1ccc(C#N)cn1 (stereo not shown) [Example 77]
- CC50 at 5 days [1]: 29300 nM
- EC50 [2]: 582 nM
- IC50 [3]: 50 nM

Structure (SMILES): CN(C(=O)c1ccn2ncc(-c3ccc(C(N)=O)cc3)c2c1)c1ccc(C#N)cn1 [Example 32]
- CC50 at 5 days [1]: 15800 nM
- IC50 [4]: 58 nM
- EC50 [2]: 93 nM
- EC50 [5]: 119 nM

Structure (SMILES): CNC(=O)c1ccc(-c2cnn3ccc(C(=O)N(c4ccc(C#N)cn4)C4CCCC4)cc23)cc1 [Example 126]
- CC50 at 5 days [1]: 22100 nM
- EC50 [2]: 410 nM
- IC50 [3]: 71 nM

Structure (SMILES): CNC(=O)c1ccc(-c2cnn3ccc(C(=O)N(C)c4ccc(C(F)(F)F)cc4)cc23)cc1 [Example 103]
- CC50 at 5 days [1]: 8060 nM
- IC50 [4]: 8 nM
- EC50 [2]: 7 nM

Structure (SMILES): CNC(=O)c1ccc(-c2cnn3ccc(C(=O)N(c4ccc(C#N)cn4)C(C)(C)C)cc23)cc1 [Example 119]
- CC50 at 5 days [1]: 20100 nM
- EC50 [2]: 1930 nM
- EC50 [5]: 1940 nM
